IC50 data for 26 compounds are collected here from patent US11028066B2, “Inhibitors of lysine specific demethylase-1” (CELGENE QUANTICEL RESEARCH, INC., priority 2014, dated 2021).

In one assay the target is full-length human LSD1 (Homo sapiens (Human), UniProt O60341). The assay is described as follows: In vitro enzyme inhibition assay LSD-1 (TR-FRET). The following applies: H3K4me1-biotin peptide. The assay is classed as biochemical. The procedure:
This assay determines the ability of a test compound to inhibit LSD1 demethylase activity.
The enzymatic assay of LSD1 activity is based on Time Resolved-Fluorescence Resonance Energy Transfer (TR-FRET) detection.
Plates were read by EnVision Multilabel Reader in TR-FRET mode (excitation at 320 nm, emission at 615 nm and 665 nm) after 1 hour incubation at room temperature.
The ability of the compounds disclosed herein to inhibit LSD1 activity was quantified and the respective IC50 value was determined.

In another assay the test system is THP-1 (AML) cells. Put plainly: LSD1 CD11b cellular assay (flow cytometry). It counts as cell-based. As to conditions: Homo sapiens, THP-1, 96 h; CD11b expressing cells, 4 days incubation. The procedure: To analyze LSD1 inhibitor efficacy in cells, a CD11b flow cytometry assay was performed. LSD1 inhibition induces CD11b expression in THP-1 (AML) cells which can be measured by flow cytometry. […] LSD1 test compounds were serially diluted in DMSO. The dilutions were added to each well accordingly to a final concentration of 0.2% DMSO. The cells were incubated at 37 degrees Celsius in 5% CO2 for 4 days. 250 μL of each well was transferred to a well in a 96 well round bottom plate. The plate was centrifuged at 1200 rpm at 4 degrees Celsius in a Beckman Coulter Alegra 6KR centrifuge for 5 minutes. The media was removed leaving the cells at the bottom of the wells. The cells were washed in 100 μL cold HBSS (Hank's Balanced Salt Solution) plus 2% BSA (Bovine Serum Albumin) solution and centrifuged at 1200 rpm at 4 degrees Celsius for 5 minutes. The wash was removed. […] The cells were centrifuged and washed two times in 100 μL HBSS plus 2% BSA. After the final spin the cells were resuspended in 100 μL HBSS plus 2% BSA containing 1 ug/mL DAPI (4′,6-diamidino-2-phenylindole). The cells were then analyzed by flow cytometry in a BD FACSAria machine. Cells were analyzed for CD11b expression. The percent of CD11b expressing cells for each inhibitor concentration was used to determine an IC50 curve for each compound analyzed.

pIC50: −log10 of the molar value.

For the compound `N#Cc1ccc(-c2cn(Cc3ccccc3)c(=O)c(N3CCC(N)CC3)n2)cc1` [Example 1, 4-[6-(4-aminopiperidin-1-yl)-4-benzyl-5-oxo-4,5-dihydropyrazin-2-yl]benzonitrile], the pIC50 against full-length human LSD1 is over 7.00; in the assay on THP-1 (AML) cells it was 6.00 to 7.00. Taken in the same sequence, the figures for `Cc1ccc(Cn2cc(-c3ccc(C#N)cc3)nc(N3CCC(N)CC3)c2=O)cc1` [Example 2, 4-[6-(4-aminopiperidin-1-yl)-4-[(4-methylphenyl)methyl]-5-oxo-4,5-dihydropyrazin-2-yl]benzonitrile] were over 7.00 and 6.00 to 7.00. Taken in the same sequence, the figures for `N#Cc1ccc(-c2cn(Cc3ccccc3F)c(=O)c(N3CCC(N)CC3)n2)cc1` [Example 3, 4-[6-(4-aminopiperidin-1-yl)-4-[(2-fluorophenyl)methyl]-5-oxo-4,5-dihydropyrazin-2-yl]benzonitrile] were over 7.00 and 6.00 to 7.00.

In the case of `N#Cc1ccc(-c2cn(Cc3cccc(Cl)c3)c(=O)c(N3CCC(N)CC3)n2)cc1` [Example 4, 4-[6-(4-aminopiperidin-1-yl)-4-(3-chloro-benzyl)-5-oxo-4,5-dihydro-pyrazin-2-yl]-benzonitrile], the pIC50 on full-length human LSD1 is over 7.00; in the assay on THP-1 (AML) cells, 5.00 to 6.00. On to `N#Cc1ccc(-c2cn(CC3CC3)c(=O)c(N3CCC(N)CC3)n2)cc1F` [Example 7, 4-[6-(4-amino-piperidin-1-yl)-4-cyclopropylmethyl-5-oxo-4,5-dihydro-pyrazin-2-yl]-2-fluoro-benzonitrile], for which the pIC50 against full-length human LSD1 was over 7.00; in the assay on THP-1 (AML) cells, 5.00 to 6.00. Turning to `N#Cc1ccc(-c2cn(Cc3cccc(F)c3)c(=O)c(N3CCC(N)CC3)n2)cc1` [Example 8, 4-[6-(4-aminopiperidin-1-yl)-4-[(3-fluorophenyl)methyl]-5-oxo-4,5-dihydropyrazin-2-yl]benzonitrile], the pIC50 against full-length human LSD1 was over 7.00; in the assay on THP-1 (AML) cells, 6.00 to 7.00. Taken in the same sequence, the figures for `N#Cc1ccc(-c2cn(Cc3ccc(F)cc3)c(=O)c(N3CCC(N)CC3)n2)cc1` [Example 9, 4-[6-(4-aminopiperidin-1-yl)-4-[(4-fluorophenyl)methyl]-5-oxo-4,5-dihydropyrazin-2-yl]benzonitrile] were over 7.00 and 6.00 to 7.00. Taken in the same sequence, the figures for `COc1cccc(Cn2cc(-c3ccc(C#N)cc3)nc(N3CCC(N)CC3)c2=O)c1` [Example 10, 4-[6-(4-aminopiperidin-1-yl)-4-[(3-methoxyphenyl)methyl]-5-oxo-4,5-dihydropyrazin-2-yl]benzonitrile] were over 7.00 and 6.00 to 7.00. For `COc1ccc(Cn2cc(-c3ccc(C#N)cc3)nc(N3CCC(N)CC3)c2=O)cc1` [Example 11, 4-[6-(4-aminopiperidin-1-yl)-4-[(4-methoxyphenyl)methyl]-5-oxo-4,5-dihydropyrazin-2-yl]benzonitrile], the pIC50 on full-length human LSD1 was over 7.00; with THP-1 (AML) cells it was 6.00 to 7.00. As to `C[C@H](c1ccccc1)n1cc(-c2ccc(C#N)cc2)nc(N2CCC(N)CC2)c1=O` [Example 12, 4-[6-(4-aminopiperidin-1-yl)-5-oxo-4-[(1R)-1-phenylethyl]-4,5-dihydropyrazin-2-yl]benzonitrile], the pIC50 was over 7.00 against full-length human LSD1 and 5.00 to 6.00 with THP-1 (AML) cells.

Turning to `C[C@@H](c1ccccc1)n1cc(-c2ccc(C#N)cc2)nc(N2CCC(N)CC2)c1=O` [Example 13, 4-[6-(4-aminopiperidin-1-yl)-5-oxo-4-[(1S)-1-phenylethyl]-4,5-dihydropyrazin-2-yl]benzonitrile], the pIC50 is over 7.00 against full-length human LSD1 and 5.00 to 6.00 in the assay on THP-1 (AML) cells. Taken in the same sequence, the figures for `N#Cc1ccc(-c2cn(CC3CCOC3)c(=O)c(N3CCC(N)CC3)n2)cc1F` (stereo not drawn) [Example 14, 4-[6-(4-amino-piperidin-1-yl)-5-oxo-4-(tetrahydro-furan-3-ylmethyl)-4,5-dihydro-pyrazin-2-yl]-2-fluoro-benzonitrile] were over 7.00 and 6.00 to 7.00.

Turning to `N#Cc1ccc(-c2cn(CC3CCOCC3)c(=O)c(N3CCC(N)CC3)n2)cc1F` [Example 15, 4-[6-(4-amino-piperidin-1-yl)-5-oxo-4-(tetrahydro-pyran-4-ylmethyl)-4,5-dihydro-pyrazin-2-yl]-2-fluoro-benzonitrile], the pIC50 is over 7.00 against full-length human LSD1 and 6.00 to 7.00 in the assay with THP-1 (AML) cells. Take `Cc1ccc(-c2c(-c3ccc(C#N)cc3)nc(NC[C@H]3CCNC3)c(=O)n2C)cc1` [Example 17, 4-[4-methyl-3-(4-methylphenyl)-5-oxo-6-{[(3S)-pyrrolidin-3-ylmethyl]amino}-4,5-dihydropyrazin-2-yl]benzonitrile]: the pIC50 on full-length human LSD1 and in the assay with THP-1 (AML) cells was over 7.00 in each case. `Cc1ccc(-c2c(-c3ccc(C#N)cc3)nc(NC[C@@H]3CCNC3)c(=O)n2C)cc1` [Example 18, 4-[4-methyl-3-(4-methylphenyl)-5-oxo-6-{[(3R)-pyrrolidin-3-ylmethyl]amino}-4,5-dihydropyrazin-2-yl]benzonitrile]: the pIC50 on full-length human LSD1 and in the assay with THP-1 (AML) cells was over 7.00 throughout.

`Cc1ccc(-c2c(-c3ccc(C#N)nc3)nc(N3CCC(N)CC3)c(=O)n2C)cc1` [Example 19, 5-[6-(4-aminopiperidin-1-yl)-4-methyl-3-(4-methylphenyl)-5-oxo-4,5-dihydropyrazin-2-yl]pyridine-2-carbonitrile]: the negative-log IC50 (pIC50) on full-length human LSD1 and in the assay with THP-1 (AML) cells was over 7.00 each time. Turning to `CNC1CCN(c2nc(-c3ccc(C#N)cc3)c(-c3ccc(C)cc3)n(C)c2=O)CC1` [Example 20, 4-{4-methyl-6-[4-(methylamino)piperidin-1-yl]-3-(4-methylphenyl)-5-oxo-4,5-dihydropyrazin-2-yl}benzonitrile], the pIC50 at full-length human LSD1 and in the assay on THP-1 (AML) cells was over 7.00 throughout. Take `Cc1ccc(-c2c(-c3ccc(C#N)cc3)nc(N3CCC(C)(N)CC3)c(=O)n2C)cc1` [Example 21, 4-[6-(4-amino-4-methylpiperidin-1-yl)-4-methyl-3-(4-methylphenyl)-5-oxo-4,5-dihydropyrazin-2-yl]benzonitrile]: the pIC50 on full-length human LSD1 is over 7.00; with THP-1 (AML) cells, 6.00 to 7.00. On to `Cc1ccc(-c2c(-c3ccc(C#N)cc3)nc(N3CCCC(N)C3)c(=O)n2C)cc1` (stereo not drawn) [Example 22, 4-[6-(3-aminopiperidin-1-yl)-4-methyl-3-(4-methylphenyl)-5-oxo-4,5-dihydropyrazin-2-yl]benzonitrile], for which the pIC50 against full-length human LSD1 and in the assay with THP-1 (AML) cells was over 7.00 throughout.

With `Cc1ccc(-c2c(-c3ccc(C#N)cc3)nc(N3CCC4CNCC4C3)c(=O)n2C)cc1` (stereo not drawn) [Example 23, 4-[4-methyl-3-(4-methylphenyl)-6-{octahydro-1H-pyrrolo[3,4-c]pyridin-5-yl}-5-oxo-4,5-dihydropyrazin-2-yl]benzonitrile], the pIC50 against full-length human LSD1 and in the assay with THP-1 (AML) cells was over 7.00 throughout. On to `Cc1ccc(-c2c(-c3ccc(C#N)cc3)nc(N3CCC4(CCNC4)CC3)c(=O)n2C)cc1` [Example 24, 4-(6-{2,8-diazaspiro[4.5]decan-8-yl}-4-methyl-3-(4-methylphenyl)-5-oxo-4,5-dihydropyrazin-2-yl)benzonitrile], for which the pIC50 at full-length human LSD1 and in the assay with THP-1 (AML) cells was over 7.00 each time. Turning to `Cc1ccc(-c2c(-c3ccc(C#N)cc3)nc(N3CCC4CNCC4CC3)c(=O)n2C)cc1` (stereo not drawn) [Example 25, 4-(6-{decahydropyrrolo[3,4-d]azepin-6-yl}-4-methyl-3-(4-methylphenyl)-5-oxo-4,5-dihydropyrazin-2-yl)benzonitrile], the pIC50 on full-length human LSD1 and in the assay on THP-1 (AML) cells was over 7.00 throughout. For `CCn1c(-c2ccc(C)cc2)c(-c2ccc(C#N)cc2)nc(N2CCC(N)CC2)c1=O` [Example 26, 4-[6-(4-aminopiperidin-1-yl)-4-ethyl-3-(4-methylphenyl)-5-oxo-4,5-dihydropyrazin-2-yl]benzonitrile], the pIC50 at full-length human LSD1 and in the assay with THP-1 (AML) cells was over 7.00 in each case. Regarding `CCc1ccc(-c2c(-c3ccc(C#N)cc3)nc(N3CCC(N)CC3)c(=O)n2C)cc1` [Example 27, 4-[6-(4-aminopiperidin-1-yl)-3-(4-ethylphenyl)-4-methyl-5-oxo-4,5-dihydropyrazin-2-yl]benzonitrile], the pIC50 at full-length human LSD1 and in the assay on THP-1 (AML) cells was over 7.00 each time.

For `CCc1ccc(-c2c(-c3ccc(C#N)cc3)nc(NC[C@@H]3CCNC3)c(=O)n2C)cc1` [Example 29, 4-[3-(4-ethylphenyl)-4-methyl-5-oxo-6-{[(3R)-pyrrolidin-3-ylmethyl]amino}-4,5-dihydropyrazin-2-yl]benzonitrile], the pIC50 on full-length human LSD1 is over 7.00; in the assay with THP-1 (AML) cells, 6.00 to 7.00.

`CCn1c(-c2ccc(OC)cc2)c(-c2ccc(C#N)c(F)c2)cc(N2CCC(N)CC2)c1=O` [Example 87, 4-[5-(4-aminopiperidin-1-yl)-1-ethyl-2-(4-methoxyphenyl)-6-oxopyridin-3-yl]-2-fluorobenzonitrile] gave a pIC50 in the assay with THP-1 (AML) cells of over 7.00.
